Reference: ChEMBL document CHEMBL1833935, “Metal-free cleavage efficiency toward DNA by a novel PNA analog-bridged macrocyclic polyamine” (Bioorg Med Chem Lett, 2011)
Values belong to the compound of their own block, whether it stands above or below them. The source made the active and inactive calls. The rule behind the calls is not given here. *1 amine or outer side, *2 acyl side, *3 side chain or, on linkers, in order; H or OH if unused. Where a SMILES comes first, the peptide text is derived from it. Bridges are numbered along the chain shown (N, C = ends). Roman numbers before positions name the chains, in order. The star is where a group is joined. Hexamethylenediamine = C(CCCN[*:2])CCN[*:1]; Cyclenylacetyl = O=C(CN1CCNCCNCCNCC1)*; X1 = O=c1[nH]cc(C*)c(=O)[nH]1

Columns and labels:
Format in all cases: nucleic-acid assay
Nucleic Acid [1] = assay: Induction of Escherichia coli pUC19 DNA cleavage assessed as conversion of supercoiled plasmid DNA to nicked circular DNA at 20 uM after 48 hrs by agarose gel electrophoresis
Nucleic Acid [2] = assay: Binding affinity to calf thymus DNA assessed as change in melting temperature at compound/DNA ratio of 1:5; conditions: Bos taurus
Nucleic Acid [3] = assay: Binding affinity to calf thymus DNA at compound/DNA ratio 2:5; conditions: Bos taurus
Nucleic Acid [4] = assay: Induction of Escherichia coli pUC19 DNA cleavage assessed as conversion of supercoiled plasmid DNA to nicked circular DNA at 10 uM after 48 hrs by agarose gel electrophoresis
Nucleic Acid [5] = assay: Induction of supercoiled Escherichia coli pUC19 DNA cleavage in HEPES buffer at pH 7.0 after 48 hrs by agarose gel electrophoresis in presence of 0.1 M tert-butyl alcohol
Nucleic Acid [6] = assay: Binding affinity to calf thymus DNA assessed as change in melting temperature at compound/DNA ratio of 2:5; conditions: Bos taurus
Nucleic Acid [7] = assay: Induction of [5'-32P]-end labeled single stranded 26 mer DNA cleavage assessed as formation of ladder of DNA fragments in HEPES buffer at 10 to 100 uM after 48 hrs at pH 7.0 and 37 degC by agarose gel electrophoresis-based phosphorimager analysis
Nucleic Acid [8] = assay: Induction of supercoiled Escherichia coli pUC19 DNA cleavage in HEPES buffer at pH 7.0 after 48 hrs by agarose gel electrophoresis in presence of 0.1 M NaN3
Nucleic Acid [9] = assay: Induction of [5'-32P]-end labeled single stranded 26 mer DNA cleavage assessed as formation of ladder of DNA fragment at 10 to 100 uM after 48 hrs at pH 7.0 and < = 25 degC by agarose gel electrophoresis-based phosphorimager analysis
Nucleic Acid [10] = assay: Induction of supercoiled Escherichia coli pUC19 DNA cleavage in HEPES buffer at pH 7.0 after 48 hrs by agarose gel electrophoresis in presence of 0.1 M DSMO
Nucleic Acid [11] = assay: Induction of supercoiled Escherichia coli pUC19 DNA cleavage in HEPES buffer at pH 7.0 after 48 hrs by agarose gel electrophoresis in presence of 0.1 M potassium iodide
Nucleic Acid [12] = assay: Induction of [5'-32P]-end labeled single stranded 24 mer DNA cleavage assessed as formation of ladder of DNA fragment at 10 to 100 uM after 48 hrs at pH 7.0 and < = 25 degC by agarose gel electrophoresis-based phosphorimager analysis
Nucleic Acid [13] = assay: Induction of [5'-32P]-end labeled single stranded 24 mer DNA cleavage assessed as formation of ladder of DNA fragment at 10 to 100 uM after 48 hrs at pH 7.0 and 37 degC by agarose gel electrophoresis-based phosphorimager analysis
Nucleic Acid [14] = assay: Induction of Escherichia coli pUC19 DNA cleavage assessed as conversion of supercoiled plasmid DNA to nicked circular DNA at 10 uM after 48 hrs by agarose gel electrophoresis in presence of 1 mM EDTA
Nucleic Acid [15] = assay: Induction of Escherichia coli pUC19 DNA cleavage assessed as conversion of supercoiled plasmid DNA to linear DNA at 10 uM after 48 hrs by agarose gel electrophoresis

Activity (Nucleic Acid [1]): inactive
SMILES: C1CNCCNCCNCCN1

ΔTm (Nucleic Acid [2]): 1.1 °C | Activity (Nucleic Acid [3]): Active | Activity (Nucleic Acid [1]): inactive | Activity (Nucleic Acid [4]): Active
SMILES: COC(=O)[C@H](CSCc1c[nH]c(=O)[nH]c1=O)NC(=O)CNC(=O)[C@H](CSCc1c[nH]c(=O)[nH]c1=O)NC(=O)CNC(=O)CN1CCNCCNCCNCC1 (Cyclenylacetyl-GC(X1)GC(X1)-OMe)

Activity (Nucleic Acid [5]): Active | ΔTm (Nucleic Acid [6]): 2.3 °C | Activity (Nucleic Acid [7]): Active | Activity (Nucleic Acid [8]): inactive | Activity (Nucleic Acid [9]): inactive | Activity (Nucleic Acid [10]): inactive | Activity (Nucleic Acid [11]): Active | Activity (Nucleic Acid [12]): inactive | ΔTm (Nucleic Acid [2]): 5.9 °C | Activity (Nucleic Acid [13]): Active | Activity (Nucleic Acid [14]): Active | Activity (Nucleic Acid [4]): Active | Activity (Nucleic Acid [15]): Active
SMILES: O=C(CN1CCNCCNCCNCC1)NCC(=O)N[C@@H](CSCc1c[nH]c(=O)[nH]c1=O)C(=O)NCC(=O)N[C@@H](CSCc1c[nH]c(=O)[nH]c1=O)C(=O)NCCCCCCNC(=O)[C@H](CSCc1c[nH]c(=O)[nH]c1=O)NC(=O)CNC(=O)[C@H](CSCc1c[nH]c(=O)[nH]c1=O)NC(=O)CNC(=O)CN1CCNCCNCCNCC1 (I: Cyclenylacetyl-GC(X1)GC(X1) / II: Cyclenylacetyl-GC(X1)GC(X1); linker I:C-II:C via Hexamethylenediamine)

Activity (Nucleic Acid [4]): Active
SMILES: CC(C)(C)OC(=O)N1CCN(CC(=O)NCC(=O)N[C@@H](CSCc2c[nH]c(=O)[nH]c2=O)C(=O)NCC(=O)N[C@@H](CSCc2c[nH]c(=O)[nH]c2=O)C(=O)NCCCCCCNC(=O)[C@H](CSCc2c[nH]c(=O)[nH]c2=O)NC(=O)CNC(=O)[C@H](CSCc2c[nH]c(=O)[nH]c2=O)NC(=O)CNC(=O)CN2CCN(C(=O)OC(C)(C)C)CCN(C(=O)OC(C)(C)C)CCN(C(=O)OC(C)(C)C)CC2)CCN(C(=O)OC(C)(C)C)CCN(C(=O)OC(C)(C)C)CC1
